Measured values: ChEMBL document CHEMBL3751735, “Discovery of 2-(4-sulfonamidophenyl)-indole 3-carboxamides as potent and selective inhibitors with broad hepatitis C virus genotype activity targeting HCV NS4B” (Bioorg Med Chem Lett, 2016)

How the values were obtained:
[1] = Toxicity against human HuH7 cells harboring HCV genotype 1b bicistronic replicon assessed as inhibition of GAPDH mRNA expression measured 3 days post dose by real time RT-PCR analysis; format: cell-based, Huh-7
Hepatitis C virus [2] = assay: Antiviral activity against HCV genotype 1b Con1 bicistronic replicon infected in human Huh7 cells assessed as replicon RNA expression measured 3 days post dose by real time RT-PCR analysis; format: functional, organism-based, Hepacivirus hominis; settings: isolate Con1, Huh-7, 72 h
Hepatitis C virus [3] = assay: Antiviral activity against HCV genotype 2a JFH-1 infected in human HuH7.5 cells assessed as HCV RNA expression measured 72 hrs post dose by qRT-PCR analysis; format: functional, organism-based, Hepacivirus hominis; settings: JFH-1, Huh-7, 72 h
Hepatitis C virus [4] = assay: Antiviral activity against HCV genotype 3a S52/SG-Feo(SH) infected in human HuH7.5 cells measured 3 days post dose by Luciferase assay; format: functional, organism-based, Hepacivirus hominis; settings: Huh-7, 72 h
[5] = Ratio of drug level in liver to plasma in Sprague-Dawley rat at 10 mg/kg, po measured 6 hrs post dose; format: ADME, organism-based; settings: liver and plasma
[6] = AUC (0 to 6 hrs) in Sprague-Dawley rat plasma at 10 mg/kg, po measured at 30 mins to 6 hrs post dose; format: ADME, organism-based; design: dose 10 mg/kg, time < 6 hr, route oral
Hepatitis C virus [7] = assay: Antiviral activity against HCV genotype 1a H77S bicistronic replicon infected in human Huh7 cells assessed as replicon RNA expression measured 3 days post dose by real time RT-PCR analysis; format: functional, organism-based, Hepacivirus hominis; settings: Huh-7, 72 h
Hepatitis C virus [8] = assay: Antiviral activity against HCV genotype 1b harboring NS4B F98C mutant relative to wild type HCV genotype 1b; format: functional, Hepacivirus hominis
Hepatitis C virus [9] = assay: Antiviral activity against HCV genotype 1b harboring NS4B V105M mutant relative to wild type HCV genotype 1b; format: functional, Hepacivirus hominis

| SMILES | IC50 at 3 days [1] [nM] | EC50 (Hepatitis C virus [2]) [nM] | EC50 (Hepatitis C virus [3]) [nM] | EC50 (Hepatitis C virus [4]) [nM] | Kp at 6 h [5] | AUC(0-t) at 6 h [6] [µM·h] | EC50 (Hepatitis C virus [7]) [nM] | fold change (FC) (Hepatitis C virus [8]) | fold change (FC) (Hepatitis C virus [9]) |
| --- | --- | --- | --- | --- | --- | --- | --- | --- | --- |
| Cc1cc(NS(=O)(=O)C(C)(C)C)ccc1-c1c(C(N)=O)c2cc(F)c(OC(F)F)cc2n1-c1ccccc1 | > 10000 | 2 |  |  |  |  |  |  |  |
| CCc1cc2c(cc1F)c(C(N)=O)c(-c1ccc(NS(=O)(=O)C(C)C)cc1)n2C1CCCC1 | > 10000 | 68 |  |  |  |  |  |  |  |
| CC(C)(C)S(=O)(=O)Nc1ccc(-c2c(C(N)=O)c3cc(F)c(OC(F)F)cc3n2C2CCCCC2)c(Cl)c1 | > 10000 | 2 | 28 | 0.2 | 115 | 2.1 | < 1 |  |  |
| Cc1cc2c(cc1F)c(C(N)=O)c(-c1ccc(NS(=O)(=O)C(C)(C)C)cc1)n2C1CCCC1 | > 10000 | 39 | 10 | 317 | 15 | 0.457 | 20 |  |  |
| CCc1cc2c(cc1F)c(C(N)=O)c(-c1ccc(NS(=O)(=O)C(C)(C)C)cc1)n2C1CCCC1 | > 10000 | 7 | 20 | 115 | 27 | 4.12 | 130 |  |  |
| CC(C)(C)S(=O)(=O)Nc1ccc(-c2c(C(N)=O)c3cc(F)c(OC(F)F)cc3n2C2CCCC2)cc1 | > 10000 | 5 | 6 | 20 | 47 | 0.382 | 4 |  |  |
| CC(C)(C)S(=O)(=O)Nc1ccc(-c2c(C(N)=O)c3cc(F)c(OC(F)F)cc3n2C2CCCCC2)cc1F | > 1000 | 3 |  |  |  |  |  |  |  |
| CC(C)(C)S(=O)(=O)Nc1ccc(-c2c(C(N)=O)c3cc(F)c(OC(F)F)cc3n2-c2ccccc2)cc1F | > 1100 | 12 |  |  |  |  |  |  |  |
| CC(C)(C)S(=O)(=O)Nc1ccc(-c2c(C(N)=O)c3cc(F)c(OC(F)F)cc3n2C2CCCCC2)cc1Cl | > 1000 | 305 |  |  |  |  |  |  |  |
| Cc1cc(NS(=O)(=O)C(C)(C)C)ccc1-c1c(C(N)=O)c2cc(F)c(OC(F)F)cc2n1C1CCCCC1 | > 10000 | 10 | 24 | 0.5 | 62 | 4.96 | 1 |  |  |
| CC(C)(C)S(=O)(=O)Nc1ccc(-c2c(C(N)=O)c3cc(F)c(OC(F)F)cc3n2C2CCCCC2)cn1 | > 10000 | 6 | 380 | 119 | 332 | 0.204 | 10 |  |  |
| Cc1cc2c(cc1F)c(C(N)=O)c(-c1ccc(NS(=O)(=O)C(C)(C)C)cc1)n2C1CCOCC1 | > 10000 | 17 |  |  |  |  |  |  |  |
| CC(C)(C)S(=O)(=O)Nc1ccc(-c2c(C(N)=O)c3c(F)cc(C(F)F)cc3n2C2CCCC2)cc1 | > 10000 | 4 |  |  |  |  |  |  |  |
| COc1cc2c(cc1F)c(C(N)=O)c(-c1ccc(NS(=O)(=O)C(C)(C)C)cc1)n2C1CCCC1 | > 10000 | 59 |  |  |  |  |  |  |  |
| CCc1cc2c(cc1F)c(C(N)=O)c(-c1cnc(NS(=O)(=O)C(C)(C)C)nc1)n2C1CCCCC1 | > 10000 | 2100 |  |  |  |  |  |  |  |
| Cc1cc2c(cc1F)c(C(N)=O)c(-c1ccc(NS(=O)(=O)C(C)(C)C)cc1)n2-c1cccnc1 | > 10000 | 180 |  |  |  |  |  |  |  |
| CC(C)c1cc2c(cc1F)c(C(N)=O)c(-c1ccc(NS(=O)(=O)C(C)(C)C)cc1)n2C1CCCC1 | > 10000 | 170 |  |  |  |  |  |  |  |
| Cc1cc(-c2c(C(N)=O)c3cc(F)c(OC(F)F)cc3n2-c2ccccc2)ccc1NS(=O)(=O)C(C)(C)C | > 10000 | 120 |  |  |  |  |  |  |  |
| CCc1cc2c(cc1F)c(C(N)=O)c(-c1ccc(NS(=O)(=O)C(C)(C)C)cc1)n2C1CCCCC1 | > 10000 | 4 |  |  |  |  |  |  |  |
| CC(C)(C)S(=O)(=O)Nc1ccc(-c2c(C(N)=O)c3cc(F)c(OC(F)F)cc3n2C2CCCC2)c(F)c1 | > 10000 | 2 | 6 |  |  | 0.37 | 10 |  |  |

| SMILES | IC50 at 3 days [1] [nM] | EC50 (Hepatitis C virus [2]) [nM] | EC50 (Hepatitis C virus [3]) [nM] | EC50 (Hepatitis C virus [4]) [nM] | Kp at 6 h [5] | AUC(0-t) at 6 h [6] [µM·h] | EC50 (Hepatitis C virus [7]) [nM] | fold change (FC) (Hepatitis C virus [8]) | fold change (FC) (Hepatitis C virus [9]) |
| --- | --- | --- | --- | --- | --- | --- | --- | --- | --- |
| Cc1cc(F)c2c(C(N)=O)c(-c3ccc(NS(=O)(=O)C(C)(C)C)cc3)n(C3CCCC3)c2c1 | > 10000 | 34 |  |  |  |  |  |  |  |
| Cc1cc2c(cc1F)c(C(N)=O)c(-c1ccc(NS(=O)(=O)C(C)(C)C)cc1)n2C1CCC1 | > 10000 | 45 | 10 | 348 | 15 | 1.45 | 90 |  |  |
| CCOc1cc2c(cc1F)c(C(N)=O)c(-c1ccc(NS(=O)(=O)C(C)(C)C)cc1)n2C1CCCC1 | > 10000 | 150 |  |  |  |  |  |  |  |
| Cc1cc2c(cc1F)c(C(N)=O)c(-c1ccc(NS(=O)(=O)C(C)(C)C)cc1)n2-c1ccncc1 | > 10000 | 68 |  |  |  |  |  |  |  |
| Cc1cc(-c2c(C(N)=O)c3cc(F)c(OC(F)F)cc3n2C2CCCCC2)ccc1NS(=O)(=O)C(C)(C)C | > 1000 | 36 |  |  |  |  |  |  |  |
| Cc1cc2c(cc1F)c(C(N)=O)c(-c1ccc(NS(=O)(=O)C(C)(C)C)cc1)n2C1CCCCC1 | > 10000 | 2 | 135 | 80 | 11 | 0.685 | 8 |  |  |
| CCCc1cc2c(cc1F)c(C(N)=O)c(-c1ccc(NS(=O)(=O)C(C)(C)C)cc1)n2C1CCCC1 | 10000 | 1800 |  |  |  |  |  |  |  |
| Cc1cc2c(cc1F)c(C(N)=O)c(-c1ccc(NS(=O)(=O)C(C)C)cc1)n2C1CCCC1 | > 10000 | 56 |  |  |  |  |  |  |  |
| CCCS(=O)(=O)Nc1ccc(-c2c(C(N)=O)c3cc(F)c(C)cc3n2C2CCCC2)cc1 | > 10000 | 870 |  |  |  |  |  |  |  |
| CCc1cc2c(cc1F)c(C(N)=O)c(-c1ccc(NS(=O)(=O)C(C)(C)C)nc1)n2C1CCCCC1 | > 10000 | 19 |  |  |  |  |  |  |  |
| CC(C)(C)S(=O)(=O)Nc1ccc(-c2c(C(N)=O)c3cc(F)c(OC(F)F)cc3n2C2CCCCC2)cc1 | > 10000 | 2 | 35 | 3 | 25 | 0.831 | 1 | >=22 | >55 |
| CC(C)(C)S(=O)(=O)Nc1ccc(-c2c(C(N)=O)c3cc(F)c(OC(F)F)cc3n2-c2ccccc2)cc1 | > 1100 | 2 | 62 | 12 | 26 | 14.4 | 2 |  |  |
| CC(C)(C)S(=O)(=O)Nc1ccc(-c2c(C(N)=O)c3cc(F)c(OC(F)F)cc3n2C2CCCCC2)c(F)c1 | > 10000 | 2 | 23 | 0.4 | 70 | 3.09 | 2 |  |  |
| Cc1cc(NS(=O)(=O)C(C)(C)C)ccc1-c1c(C(N)=O)c2cc(F)c(OC(F)F)cc2n1C1CCCC1 | 9100 | 14 |  |  |  |  |  |  |  |
| CCc1cc2c(cc1F)c(C(N)=O)c(-c1ccc(NS(=O)(=O)C(C)(C)C)cn1)n2C1CCCCC1 | > 10000 | 68 |  |  |  |  |  |  |  |
| CC(C)(C)S(=O)(=O)Nc1ccc(-c2c(C(N)=O)c3cc(F)c(C4CC4)cc3n2C2CCCC2)cc1 | > 10000 | 13 |  |  |  |  |  |  |  |
| Cc1cc2c(cc1F)c(C(N)=O)c(-c1ccc(NS(=O)(=O)C(C)(C)C)cc1)n2-c1ccccc1 | > 10000 | 14 | 90 | 374 | 24 | 14.9 | 180 |  |  |
| Cc1cc2c(cc1F)c(C(N)=O)c(-c1ccc(NS(=O)(=O)C(C)(C)C)cc1)n2-c1ccc(Cl)cc1 | > 10000 | 43 |  |  |  |  |  |  |  |
| CC(C)(C)S(=O)(=O)Nc1ccc(-c2c(C(N)=O)c3cc(F)c(OC(F)F)cc3n2-c2ccccc2)c(F)c1 | > 10000 | 2 | 37 | 4 | 57 | 7.93 | 3 |  |  |
| CC(C)(C)S(=O)(=O)Nc1ccc(-c2c(C(N)=O)c3cc(F)c(OC(F)F)cc3n2C2CCCC2)c(Cl)c1 | 4500 | 2 | 30 | 58 | 65 | 9.96 | 7 |  |  |
